Assay [1] concerns IEGT-Luc1 lines. The experiment in a line: Promoter-luciferase reporter activity in leaves of transgenic tobacco. The assay is classed as cell-based. Conditions: leaf halves infiltrated with 1 mM SA for 4-12 hours; six out of ten lines. Here is the method:
(§1) FIG. 8. A. Schematic representation of the set-up of the experiment investigating SA-inducible gene expression in plants carrying a promoter-luciferase reporter construct. Parts of the leaves of transgenic plants are harvested, split and one half treated by infiltration by SA. The other half is treated with water. Then both halves are sprayed with luciferin solution and tested for luminescence. B. Results of the experiment using leaves of tobacco transgenic for the IEGT/G1-1 promoter-luciferase reporter construct. On the picture, the lefthand side of the leave was infiltrated with SA, the right hand side infiltrated with water. Increased luminescence is indicated by the lighter colors.
(§2) Amplified fragments were digested with BamHI and HindIII and subcloned into BamHI and HindIII-digested vector VIP11•-FFLuc (Anderson et al., 1994, Plant J. 4, 457-470) containing the firefly luciferase gene. This vector positions the promoter sequences directly upstream the promoterless FFLuc gene. […]
(§3) Leaves of primary transformants or S1 progeny were tested for reporter gene activity by excising halves of the leaves, splitting and infiltration with either water or 1 mM SA for 4-12 hours. Leaves were then sprayed with the reporter substrate luciferin (1 mM luciferin with 0.1% Triton X-100 in water) and the luminescence counted by video-imaging and quantitation equipment (schematically shown in FIG. 8A).
For orientation: A reporter such as luciferase makes a cellular process visible.

Assay [2] concerns IEGT-Luc2 lines. The description is as above. It is filed as cell-based. The following applies: leaf halves infiltrated with 1 mM SA or water for 4-12 hours; all ten lines. The procedure: as §1, §2, §3
The subject of assay [3] is G1-1/EGT. The following applies: SA; previously shown (Horvath and Chua, 1996); cited from earlier work.
The subject of assay [4] is C14-1b. As to the kind of experiment: Northern analysis of mRNA accumulation in cultured tobacco cells. The assay is classed as cell-based. The procedure: (§4) FIG. 2. Time course of SA-induced gene expression. Northern analysis of representative differential display genes following treatment of cultured tobacco cells with SA for the indicated time (in hours, except lanes 2-4, which refer to 10, 20, and 30 min.). Twenty micrograms of total RNA was loaded per lane. Blots were hybridized with ddPCR fragments indicated at right or with the β-ATPase gene as a loading control probe. Autoradiogram exposure times were optimized for each gene. The signal for C18-1 was enhanced by using the full length cDNA as probe. Labels on left indicate response class.
(§5) FIG. 4. Specificity of induction among SA analogs and other signalling compounds. Northern analysis of representative differential display genes following treatment of tobacco cells with 100 μM or 1 mM (left and right side of triangles, respectively) of the following chemicals for 2-2.5 hr: salicylic acid (SA, lanes 4 and 5), acetylSA (ASA, lanes 6 and 7), benzoic acid (BA, lanes 8 and 9), 4-hydroxybenzoic (4HBA, lanes 10 and 11), thiamine (thia, lanes 12 and 13), methyljasmonate (MJ, lanes 14 and 15), abscisic acid (ABA, lanes 16 and 17), or 2,4-dichlorophenoxyacetic acid (2,4-D, lanes 18 and 19). Control treatments are H2O (H, lane 1), 1% ethanol (E, solvent concentration in MJ treatments, lane 2), or 1% DMSO (D, solvent concentration in 2,4D treatments, lane 3). Blots were hybridized with ddPCR fragments indicated at right or with the β-ATPase geneas a loading control probe. Autoradiogram exposure times were optimized for each gene. The signal for C18-1 was enhanced by using the full length cDNA as probe. Labels on left indicate response class.
(§6) Differential display technology (Liang, P. and Pardee, A. B., Science 257: 967-971, 1992) was used to identify genes activated in the presence of SA, CHX and both. Therefore the absence or presence of SA, induction at 3 timepoints of SA-treatment, 2 different concentrations of SA and the effect of addition of CHX were measured. Seven treatments in total were performed. Treatment of tobacco BY-2 suspension cells and leaves and differential display PCR reactions were performed as described (Horvath and Chua (1996), Plant Mol. Biol. 31, 1061-1072).
(§7) The specificity for induction by SA was tested by treating tobacco cells with a range of SA analogs and plant signalling compounds at 0.1 and 1 mM for approximately 2.5 h. […] Among the SA-analogs, acetyl-SA (ASA, aspirin), benzoic acid (BA) and 4-hydroxybenzoic acid (4HBA), responses generally reflected the ability of the analog to substitute for SA in other cellular responses (Yalpani, N. et al., Plant Cell 3: 809-818, 1991, Yang, Y. and Klessig, D. F., Proc. Natl. Acad. Sci. 93, 14972-14977, 1996). […] Several genes, including those for proteinase inhibitors and lipoxygenase (Hildmann, T. et al., Plant Cell 4: 1157-1170, 1992; Melan, M. A. et al., Plant Physiol. 101: 441-450, 1993; Xu, D. et al., Plant Mol. Biol. 22: 573-588, 1993) are known to be under dual regulation by MJ and ABA. A similar mode of regulation may be in effect with C14-1b. the auxin 2,4-D induced several genes including C18-1/EREBP1 and C6-2.

Assay [5] has as its system C6-2. The description is as above. The assay is classed as cell-based. Here is the method: as §4, §5, §6, §7
Setting [6] is: 0.1 and 1 mM, approximately 2.5 h.

SMILES strings stand for the structures. Where only a bound is given, the exact number is not on record here.

On to `O=C(O)c1ccccc1O` [SA, salicylic acid], for which the “SA-induced luciferase expression over controls” value in assay [1] was 2.3-6 fold. The luciferase activity result in assay [2] is recorded as “only baseline activity”. For the same compound, in assay [3], the “time at which G1-1/EGT is induced” value is 20 to 30 min and the “time of peak G1-1/EGT” value is 3 h. In addition, the “induction of C14-1b” value in assay [4] (setting [6]) is recorded as “did not reveal response”. For the same compound, in assay [4] (SA time course), the “time at which C14-1b induction is apparent” value was 2 to 2.5 h and the “time of peak C14-1b expression” value came to 5 h. Further, the “C6-2 induction at 0.1 mM versus 1 mM” value in assay [5] (setting [6]) is on record as “greater induction at 1mM”. Further, in assay [5] (SA time course), the “time at which C6-2 induction is apparent” value was no more than 10 min, the “time of peak C6-2 mRNA” value is given as “approximately 1.5 h” and the “time of reduction of C6-2 mRNA to background levels” value was no more than 4 h.

Source of the values: patent US20020039780A1, “Salicyclic acid inducible genes and promoters” (priority 1998, published 2002).
